Test systems include SW-620 colon; K-562 leukemia; RPMI-8226 leukemia; NCI-H23 lung; HCT-15 colon; IGROV1 ovarian; SF-268 CNS; T-47D breast; SF-295 CNS; UACC-257 melanoma; HL-60(TB) leukemia; OVCAR-4 ovarian; SNB-19 CNS; NCI-H522 lung; MALME-3M melanoma; NCI/ADR-RES ovarian; SK-MEL-5 melanoma; OVCAR-5 ovarian; HCT-116 colon; RXF 393 renal.
Assay in all cases: inhibition of tumour cell growth, NCI panel, 48 h

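Step 1: Grow cells in 96-well plates. Step 2: Expose to compound for 48 hours at 5 concentrations. Step 3: Interpolate endpoints linearly; if unreached, use highest concentration. The concentration for full growth arrest is given as TGI.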 Where only a bound is given, the exact number is not on record here.

From PubChem BioAssay (NCI) come the findings set out here.

In the case of `Cc1cccc(N2C(=O)C3c4[nH]c5ccc(C)cc5c4C4CCC(C(C)(C)C)CC4C3C2=O)c1` (configuration not stated), the TGI in the assay with SW-620 colon was 59.6 µM; in the assay with K-562 leukemia, > 100 µM; with RPMI-8226 leukemia it was 41.1 µM; in the assay with NCI-H23 lung, > 100 µM; in the assay on HCT-15 colon, > 100 µM; in the assay with IGROV1 ovarian, > 100 µM. Besides, the TGI is 34.9 µM in the assay on SF-268 CNS; 52.1 µM with T-47D breast; 47.5 µM in the assay on SF-295 CNS; > 100 µM with UACC-257 melanoma; 40.3 µM in the assay on HL-60(TB) leukemia; > 100 µM in the assay with OVCAR-4 ovarian. In addition, the TGI is > 100 µM with SNB-19 CNS; 45.7 µM in the assay on NCI-H522 lung; 71.2 µM in the assay on MALME-3M melanoma; 48.5 µM in the assay with NCI/ADR-RES ovarian; > 100 µM in the assay on SK-MEL-5 melanoma; > 100 µM in the assay on OVCAR-5 ovarian.
On to `CCCCOP(C)(=O)C(NC(=O)OCC)(C(F)(F)F)C(F)(F)F` (configuration not stated), for which the TGI with SW-620 colon, with K-562 leukemia, with RPMI-8226 leukemia, in the assay with NCI-H23 lung, with HCT-15 colon and in the assay on HCT-116 colon was > 100 µM each time. Further, the TGI in the assay on RXF 393 renal, in the assay on IGROV1 ovarian, in the assay on SF-268 CNS, in the assay with T-47D breast, in the assay with SF-295 CNS and in the assay on UACC-257 melanoma was > 100 µM each time. In addition, the TGI with HL-60(TB) leukemia, with OVCAR-4 ovarian, in the assay with SNB-19 CNS, in the assay on NCI-H522 lung, with MALME-3M melanoma and with NCI/ADR-RES ovarian was > 100 µM each time. The TGI in the assay with SK-MEL-5 melanoma and with OVCAR-5 ovarian was > 100 µM throughout.
Take `C=C1C(=O)OC2CC(C)C3C4OC4C(O)C3(C)C(O)C12` (configuration not stated): the TGI came out at 54.6 µM with SW-620 colon; 91.6 µM with K-562 leukemia; 51.1 µM in the assay with RPMI-8226 leukemia; 55.5 µM with NCI-H23 lung; 77.6 µM with HCT-15 colon; 55.6 µM in the assay with HCT-116 colon. In addition, the TGI in the assay with RXF 393 renal is 53.7 µM; in the assay on IGROV1 ovarian it was 52.1 µM; in the assay on SF-268 CNS, 71.7 µM; in the assay on SF-295 CNS, 98 µM; in the assay on UACC-257 melanoma, 104 µM; in the assay on HL-60(TB) leukemia it was > 51.6 µM. Besides, the TGI worked out at 59.7 µM in the assay on OVCAR-4 ovarian; 102 µM with SNB-19 CNS; 26.4 µM in the assay with NCI-H522 lung; 67.1 µM in the assay on MALME-3M melanoma; 91.9 µM in the assay with NCI/ADR-RES ovarian; 87.1 µM with SK-MEL-5 melanoma. This molecule also yielded a TGI in the assay with OVCAR-5 ovarian of 108 µM.
